US8906925B2, “Pyrido[4,3-B]indoles containing rigid moieties” (Medivation Technologies, Inc., priority 2008, dated 2014)
Read-outs that look alike come from different tables or passages of the source.

Tests used:
[1] = target: T1, rat adrenergic α1A receptor (Rattus norvegicus, UniProt P43140); assay: Adrenergic α1A radioligand binding ([3H]Prozosin); settings: compound at 1 μM
T1 construct: from tissue; host or cells: Wistar rat submaxillary glands
T1 sequence (P43140 1-466): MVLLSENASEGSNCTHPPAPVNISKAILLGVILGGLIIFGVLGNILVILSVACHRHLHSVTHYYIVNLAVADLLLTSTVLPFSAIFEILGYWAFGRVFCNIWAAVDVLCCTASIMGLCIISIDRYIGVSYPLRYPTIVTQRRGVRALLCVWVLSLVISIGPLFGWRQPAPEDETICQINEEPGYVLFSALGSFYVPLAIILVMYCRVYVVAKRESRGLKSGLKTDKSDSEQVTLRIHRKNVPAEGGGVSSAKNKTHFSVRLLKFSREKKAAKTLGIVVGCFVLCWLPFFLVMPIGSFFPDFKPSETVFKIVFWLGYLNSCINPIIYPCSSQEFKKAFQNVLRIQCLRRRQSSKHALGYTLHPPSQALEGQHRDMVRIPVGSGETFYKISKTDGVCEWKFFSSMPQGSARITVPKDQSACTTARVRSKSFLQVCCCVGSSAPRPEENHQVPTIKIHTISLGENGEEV
Method: To evaluate in radioligand binding assays the activity of compounds of the invention, rat adrenergic α1A receptor obtained from Wistar Rat submaxillary glands (Michel, A. D. et al., Br. J. Pharmacol. 98:883, 1989) in a modified Tris-HCl buffer (50 mM Tris-HCl buffer, pH 7.4, 0.5 mM EDTA) was used. Compounds of the invention were incubated with 0.25 nM [^3H]Prozosin for 60 min. at 25° C. Non-specific binding was estimated in the presence of 10 μM phentolamine. Receptor proteins were filtered and washed, the filters were then counted to determine [^3H]Prozosin specifically bound. Compounds of the invention were screened at 1 μM or lower, using 1% DMSO as vehicle. Compounds of the invention were tested in this biochemical assay and percent inhibition of specific binding was determined.

[2] = target: T2, human recombinant serotonin (5-Hydroxytryptamine) 5-HT2B receptor (Homo sapiens, UniProt P41595); assay: Serotonin 5-HT2B radioligand binding ([3H]LSD); settings: for inhibition at 0.1 µM: compound at 0.1 μM; for inhibition at 0.1 µM / inhibition at 1 µM: read-out: Inhibition of ligand binding, Serotonin 5-HT2B (percent inhibition of specific binding)
T2 construct: expressed in transfected cells; host or cells: Chinese hamster ovary (CHO-K1) cells
Method: Compounds of invention were incubated with 1.2 nM [^3H]Lysergic acid diethylamide (LSD) for 60 min. at 37° C. […] Receptor proteins were filtered and washed, the filters were then counted to determine [^3H]LSD specifically bound. Compounds were screened at 1 μM or lower, using 1% DMSO as vehicle. Compounds of the invention were tested in this biochemical assay and percent inhibition of specific binding was determined. Biochemical assay results are presented as the percent inhibition of specific binding in Table 10.

[3] = target: T3, human recombinant serotonin (5-Hydroxytryptamine) 5-HT5A receptor (Homo sapiens, UniProt P47898); assay: Serotonin 5-HT5A radioligand binding ([3H]LSD)
T3 construct: expressed in transfected cells; host or cells: Chinese hamster ovary (CHO-K1) cells
Method: Compounds of the invention are incubated with 1.7 nM [^3H]Lysergic acid diethylamide (LSD) for 60 min. at 37° C. […] Receptor proteins are filtered and washed, the filters are counted to determine [^3H]LSD specifically bound. Compounds are screened at 1 μM or lower, using 1% DMSO as vehicle. Compounds of the invention are tested in this biochemical assay and percent inhibition of specific binding is determined.

male Wistar rat = assay: Conditioned avoidance response (CAR) model; type: in vivo; settings: 0.1, 0.3, 1, 3, 10 and 20 mg/kg, p.o.
Method: All currently approved antipsychotic agents (typical and atypical) are known to have the ability to selectively suppress conditioned avoidance response (CAR) behavior in the rat. This evidence makes CAR one of the primary tests to assess antipsychotic activity of novel compounds.
The effects of Compound Nos. 83, 88 and 90, at concentrations including 0.1, 0.3, 1, 3, 10 and 20 mg/kg, p.o., in the conditioned avoidance response model were assessed in the male Wistar rat. Risperidone (0.3 mg/kg, s.c.) was used in the present study as a positive reference compound.
For each testing session, animals were first placed for a 4-min. habituation period in a shuttlebox with an electrified grid floor. Then, rats were submitted to 30 trials spaced by intertribal intervals varying at random between 20 and 30 sec. Each trial consisted of a 10-sec. light stimulus (conditioned stimulus, CS) followed by a 10-sec. electric foot shock (unconditioned stimulus, US) in presence of the light presented in the compartment where the rat is located. If the animal moved to the other compartment during the initial 10-sec. of the trial, the light was terminated (no shock was delivered) and the response was recorded as an avoidance response. If the rat changed compartment during the foot shock, the light and the shock were terminated and the response was recorded as an unconditioned response. […] If a response was made during an intertrial interval, the response was recorded as an intertrial crossing. Training was performed 5 days per week with one session of 30 trials per day, until rats reached the performance criterion of 80% of avoidance response on at least two consecutive daily sessions. […] A minimal wash-out period of 48 hours was allowed between 2 treatments. During the wash-out period, animals were trained until they recovered an avoidance performance of at least 80%.
Statistical analysis was performed using a Friedman two-way ANOVA by ranks followed by the Wilcoxon matched-pairs signed-ranks test to test each dose of the test compound administered versus vehicle control treated rats.

[4] = percent inhibition of specific binding, read-out: Inhibition of ligand binding, Adrenergic α1A
[5] = compound at 1 μM, read-out: Inhibition of ligand binding, Serotonin 5-HT5A (percent inhibition of specific binding)

T3 sequence (P47898 whole entry): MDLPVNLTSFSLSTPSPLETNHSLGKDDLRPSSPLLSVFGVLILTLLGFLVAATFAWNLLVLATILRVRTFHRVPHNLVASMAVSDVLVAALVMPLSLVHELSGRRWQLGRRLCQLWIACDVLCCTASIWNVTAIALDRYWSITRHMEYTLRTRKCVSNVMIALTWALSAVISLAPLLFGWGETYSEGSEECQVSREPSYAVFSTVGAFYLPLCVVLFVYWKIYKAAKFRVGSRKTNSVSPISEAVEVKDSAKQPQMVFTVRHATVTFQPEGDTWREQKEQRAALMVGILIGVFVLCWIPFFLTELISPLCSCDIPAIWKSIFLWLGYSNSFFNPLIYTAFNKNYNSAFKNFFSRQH
T2 sequence (P41595 whole entry): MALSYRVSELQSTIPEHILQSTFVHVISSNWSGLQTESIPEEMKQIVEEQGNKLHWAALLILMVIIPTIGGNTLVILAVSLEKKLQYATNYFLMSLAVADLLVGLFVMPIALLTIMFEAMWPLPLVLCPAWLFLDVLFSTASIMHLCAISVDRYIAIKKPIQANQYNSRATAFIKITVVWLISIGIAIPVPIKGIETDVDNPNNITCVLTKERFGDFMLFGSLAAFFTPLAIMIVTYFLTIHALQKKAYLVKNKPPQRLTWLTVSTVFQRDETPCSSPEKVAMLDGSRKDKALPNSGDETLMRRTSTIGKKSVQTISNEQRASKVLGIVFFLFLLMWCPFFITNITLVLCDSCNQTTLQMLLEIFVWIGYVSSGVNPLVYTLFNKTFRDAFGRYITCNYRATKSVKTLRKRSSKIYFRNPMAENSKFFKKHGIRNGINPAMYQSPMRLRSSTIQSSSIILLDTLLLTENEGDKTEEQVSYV

Row | Compound | inhibition at 1 µM [1, 4] [%] | inhibition at 1 µM ([2]; compound at 1 μM) [%] | inhibition at 1 µM [3, 5] [%] | number of avoidance responses versus pretreatment, compared to vehicle (male Wistar rat) | also measured
1 | Cc1ccc(C(O)Cn2c3c(c4cc(C)ccc42)CN(C)CC3)cc1 (racemic) [Compound 43, racemic-2-(1,2,3,4-tetrahydro-2,8-dimethylpyrido[4,3-b]indol-5-yl)-1-p-tolylethanol] | 90 | 70 | 61 |  | Inhibition of ligand binding, Adrenergic α1A ([1]; percent inhibition of specific binding, 1 µM): 96%; inhibition at 0.1 µM [2]: -2%; Inhibition of ligand binding, Serotonin 5-HT2B (percent inhibition of specific binding) ([2]; compound at 1 μM, 1 µM): 77%; inhibition at 0.1 µM ([3]; compound at 0.1 μM, read-out: Inhibition of ligand binding, Serotonin 5-HT5A (percent inhibition of specific binding)): 19%; Inhibition of ligand binding, Serotonin 5-HT5A (percent inhibition of specific binding) ([3]; compound at 1 μM, 1 µM): 73%
2 | CCN1CCc2c(c3ccccc3n2CC(O)c2ccc(C)cc2)C1 (racemic) [Compound 44, racemic-2-(2-ethyl-1,2,3,4-tetrahydropyrido[4,3-b]indol-5-yl)-1-p-tolylethanol] | 39 | 11 | 0 |  | 
3 | CCN1CCc2c(c3cc(C)ccc3n2CC(O)c2ccc(C)cc2)C1 (racemic) [Compound 51, racemic-2-(2-ethyl-1,2,3,4-tetrahydro-8-methylpyrido[4,3-b]indol-5-yl)-1-p-tolylethanol] | 86 | 32 | 27 |  | inhibition at 0.1 µM [2]: 12%
4 | Cc1ccc(C(O)Cn2c3c(c4ccccc42)CN(C)CC3)cc1 (racemic) [Compound 53, racemic-2-(1,2,3,4-tetrahydro-2-methylpyrido[4,3-b]indol-5-yl)-1-p-tolylethanol] | 74 | 23 | 26 |  | 
5 | C/C(=C\n1c2c(c3cc(Cl)ccc31)CN(C)CC2)c1ccc(F)cc1 [Compound 83, (E)-8-chloro-5-(2-(4-fluorophenyl)prop-1-enyl)-2,3,4,5-tetrahydro-2-methyl-1H-pyrido[4,3-b]indole] | 90 | 88 | 97 | significantly and dose-dependently decreased | 
6 | C/C(=C\n1c2c(c3cc(C)ccc31)CN(C)CC2)c1ccncc1 [Compound 88, (E)-2,3,4,5-tetrahydro-2,8-dimethyl-5-(2-(pyridin-4-yl)prop-1-enyl)-1H-pyrido[4,3-b]indole] |  |  |  | significantly and dose-dependently decreased | 
7 | C/C(=C\n1c2c(c3cc(Cl)ccc31)CN(C)CC2)c1ccncc1 [Compound 90, (E)-8-chloro-2,3,4,5-tetrahydro-2-methyl-5-(2-(pyridin-4-yl)prop-1-enyl)-1H-pyrido[4,3-b]indole] |  |  |  | significantly and dose-dependently decreased | 
8 | Cc1ccc2c(c1)c1c(n2CC#Cc2ccccn2)CCN(C)C1 [Compound No. 500, 2,3,4,5-tetrahydro-2,8-dimethyl-5-(3-(pyridin-2-yl)prop-2-ynyl)-1H-pyrido[4,3-b]indole] |  | 34 | 23 |  | inhibition at 1 µM ([1]; read-out: Inhibition of ligand binding, Adrenergic α1A (percent inhibition of specific binding)): 27%
